Laboratory results as given in paper PMC8119466, “A screen of FDA-approved drugs identifies inhibitors of protein tyrosine phosphatase 4A3 (PTP4A3 or PRL-3)” (Scientific Reports, 2021).
Counter-ions that a name gives are not always drawn. Like-named read-outs stand apart in the source and are kept apart here.

Key:
Format in all cases: biochemical
[1] = target: T1, recombinant PRL-1 (Homo sapiens, UniProt Q93096); test: In vitro phosphatase assay (DiFMUP hydrolysis), PRL-1; for % Phosphatase Activity (compared to DMSO) PRL-1: test concentration or dose not given here
T1 construct: 6xHis (N, cleaved yes); made in house; host or cells: E. coli One Shot BL21 Star
T1 sequence (Q93096 1-173): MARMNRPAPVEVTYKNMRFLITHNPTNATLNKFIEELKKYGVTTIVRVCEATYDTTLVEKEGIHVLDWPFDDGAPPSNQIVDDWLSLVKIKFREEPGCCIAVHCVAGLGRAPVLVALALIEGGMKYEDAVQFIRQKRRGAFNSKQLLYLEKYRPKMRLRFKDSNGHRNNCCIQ

[2] = target: T2, recombinant PRL-2 (Homo sapiens, UniProt Q12974); test: In vitro phosphatase assay (DiFMUP hydrolysis), PRL-2;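 note: PRL-2 activity read as DiFMUP hydrolysis after 20 min at room temperature with drug, enzyme first pre-reduced at 4 °C for 20 min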
T2 construct: 6xHis (N, cleaved yes); made in house; host or cells: E. coli One Shot BL21 Star
T2 sequence (Q12974 1-167): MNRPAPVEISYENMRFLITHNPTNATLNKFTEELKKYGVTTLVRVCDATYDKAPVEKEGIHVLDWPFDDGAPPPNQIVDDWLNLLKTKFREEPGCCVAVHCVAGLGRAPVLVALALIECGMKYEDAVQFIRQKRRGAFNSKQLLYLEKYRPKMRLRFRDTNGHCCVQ

[3] = target: T3, recombinant PRL-3 (Homo sapiens, UniProt O75365); test: In vitro phosphatase assay (DiFMUP hydrolysis), PRL-3; for % Phosphatase Activity (compared to DMSO) PRL-3: test concentration or dose not given here
T3 construct: 6xHis (N, cleaved yes); made in house; host or cells: E. coli One Shot BL21 Star
T3 sequence (O75365 whole entry): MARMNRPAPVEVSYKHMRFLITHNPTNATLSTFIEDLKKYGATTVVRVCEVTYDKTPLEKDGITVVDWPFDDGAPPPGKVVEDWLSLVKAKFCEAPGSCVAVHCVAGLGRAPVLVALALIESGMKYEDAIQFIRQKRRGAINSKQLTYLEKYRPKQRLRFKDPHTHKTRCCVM

[4] = FDA-approved drug screen, compared to DMSO
[5] = FDA-approved drug screen, activity compared to DMSO

Structure (SMILES)	% Phosphatase Activity (compared to DMSO) PRL-1 [1, 4] [%]	% Phosphatase Activity (compared to DMSO) PRL-2 [2, 4] [%]	% Phosphatase Activity (compared to DMSO) PRL-3 [3, 4] [%]	also measured
CCN(C)C(=O)Oc1cccc([C@H](C)N(C)C)c1 [Rivastigmine]	98	94	92	–
CC[C@H]1OC(=O)C[C@@H](O)[C@H](C)[C@@H](O[C@@H]2O[C@H](C)[C@@H](O[C@H]3C[C@@](C)(O)[C@@H](O)[C@H](C)O3)[C@H](N(C)C)[C@H]2O)[C@@H](CC=O)C[C@@H](C)C(=O)/C=C/C(C)=C/[C@@H]1CO[C@@H]1O[C@H](C)[C@@H](O)[C@@H](OC)[C@H]1OC.O=C(O)C(O)C(O)C(=O)O [Tylosin tartrate]	–	–	–	% Phosphatase Activity (compared to DMSO) PRL-1 [1, 5]: 95%; % Phosphatase Activity (compared to DMSO) PRL-2 [2, 5]: 93%; % Phosphatase Activity (compared to DMSO) PRL-3 [3, 5]: 81%
O=C(O)c1ccc(-n2nc(-c3ccccc3O)nc2-c2ccccc2O)cc1 [Deferasirox]	108	104	81	–
C[C@H](N)[C@H](O)c1cccc(O)c1 [Metaraminol Bitartrate]	112	106	94	–
CC(=O)N1CCN(c2ccc(OCC3COC(Cn4ccnc4)(c4ccc(Cl)cc4Cl)O3)cc2)CC1 (stereo not drawn) [Ketoconazole]	92	89	75	–
C=CCc1cc(OC)c(O)c(C(=O)NCCO)c1 [Alibendol]	90	109	81	–
C[C@]12CCC(=O)C=C1CC[C@@H]1[C@@H]2[C@@H](O)C[C@@]2(C)[C@H]1CC[C@]2(O)C(=O)CO [Hydrocortisone]	102	91	79	–
Cc1ccccc1C(=O)Nc1ccc(C(=O)N2CCCC(O)c3cc(Cl)ccc32)c(C)c1 (stereo not drawn) [Tolvaptan]	–	–	–	% Phosphatase Activity (compared to DMSO) PRL-1 [1, 5]: 97%; % Phosphatase Activity (compared to DMSO) PRL-2 [2, 5]: 143%; % Phosphatase Activity (compared to DMSO) PRL-3 [3, 5]: 101%
Cc1ncc([N+](=O)[O-])n1CC(O)CCl (stereo not drawn) [Ornidazole]	104	102	84	–
CN(C)c1ccc(O)c2c1C[C@H]1C[C@H]3[C@H](N(C)C)C(O)=C(C(N)=O)C(=O)[C@@]3(O)C(O)=C1C2=O [Minocycline HCl]	84	70	104	–
CC1(C)S[C@@H]2[C@H](NC(=O)[C@H](NC(=O)N3CCN(S(C)(=O)=O)C3=O)c3ccccc3)C(=O)N2[C@H]1C(=O)O [Mezlocillin Sodium]	92	91	67	–
COc1ccc(CN2CCNCC2)c(OC)c1OC [Trimetazidine dihydrochloride]	–	–	–	% Phosphatase Activity (compared to DMSO) PRL-1 [1, 5]: 95%; % Phosphatase Activity (compared to DMSO) PRL-2 [2, 5]: 93%; % Phosphatase Activity (compared to DMSO) PRL-3 [3, 5]: 80%
CCCCCN(C)CCC(O)(P(=O)([O-])O)P(=O)(O)O.[Na+] [Ibandronate sodium]	93	96	109	–
COc1ccc(-n2nc(C(N)=O)c3c2C(=O)N(c2ccc(N4CCCCC4=O)cc2)CC3)cc1 [Apixaban]	102	132	80	–
C[C@H](CCC(=O)O)[C@H]1CC[C@H]2[C@@H]3C(=O)C[C@@H]4CC(=O)CC[C@]4(C)[C@H]3CC(=O)[C@]12C [Dehydrocholic acid]	103	118	80	–
O=C(O)Cc1ccccc1Nc1c(Cl)cccc1Cl [Diclofenac Sodium]	100	115	92	–

Structure (SMILES)	% Phosphatase Activity (compared to DMSO) PRL-1 [1, 4] [%]	% Phosphatase Activity (compared to DMSO) PRL-2 [2, 4] [%]	% Phosphatase Activity (compared to DMSO) PRL-3 [3, 4] [%]	also measured
CCOc1ccc(Cc2cc([C@@H]3O[C@H](CO)[C@@H](O)[C@H](O)[C@H]3O)ccc2Cl)cc1 [Dapagliflozin]	–	–	–	% Phosphatase Activity (compared to DMSO) PRL-1 [1]: 98%; % Phosphatase Activity (compared to DMSO) PRL-2 [2]: 91%; % Phosphatase Activity (compared to DMSO) PRL-3 [3]: 89%
CCCC(C(=O)OCCN(CC)CC)(c1ccccc1)c1ccccc1 [Proadifen HCl]	94	106	105	–
COc1cc2/c(=N/c3ccc(Br)cc3F)nc[nH]c2cc1OCC1CCN(C)CC1 [Vandetanib (ZD6474)]	–	–	–	% Phosphatase Activity (compared to DMSO) PRL-1 [1, 5]: 96%; % Phosphatase Activity (compared to DMSO) PRL-2 [2, 5]: 98%; % Phosphatase Activity (compared to DMSO) PRL-3 [3, 5]: 77%
CCOc1cc2ncc(C#N)c(Nc3ccc(OCc4ccccn4)c(Cl)c3)c2cc1NC(=O)/C=C/CN(C)C [Neratinib (HKI-272)]	110	111	91	–
Cc1c(-c2cnccn2)ssc1=S [Oltipraz]	–	–	–	% Phosphatase Activity (compared to DMSO) PRL-1 [1]: 90%; % Phosphatase Activity (compared to DMSO) PRL-2 [2]: 73%; % Phosphatase Activity (compared to DMSO) PRL-3 [3]: 76%
CN(C)CC/C=C1/c2ccccc2Sc2ccc(Cl)cc21 [Chlorprothixene]	98	107	93	–
Cc1cc2c(cc1S(N)(=O)=O)S(=O)(=O)CCC2 [Meticrane]	104	94	83	–
Cl.Cl.Clc1ccc(Nc2nnc(Cc3ccncc3)c3ccccc23)cc1 [Vatalanib (PTK787) 2HCl]	–	–	–	% Phosphatase Activity (compared to DMSO) PRL-1 [1, 5]: 109%; % Phosphatase Activity (compared to DMSO) PRL-2 [2, 5]: 96%; % Phosphatase Activity (compared to DMSO) PRL-3 [3, 5]: 72%
CCc1ccc(CCOc2ccc(CC3SC(=O)NC3=O)cc2)nc1 (stereo not drawn) [Pioglitazone HCl]	81	100	86	–
CNC(=C[N+](=O)[O-])NCCSCc1csc(CN(C)C)n1 [Nizatidine]	87	105	97	–
Cc1cc(C(C#N)c2ccc(Cl)cc2)c(Cl)cc1NC(=O)c1cc(I)cc(I)c1[O-].[Na+] (stereo not drawn) [Closantel Sodium, reference compound]	15	12	34	IC50 ([1]; […] protein, DiFMUP at KM, read-out: Calculated IC50, PRL-1 phosphatase activity): 22 ± 8 µM; IC50 ([2]; […] protein, DiFMUP at KM, read-out: Calculated IC50, PRL-2 phosphatase activity): 18 ± 1 µM; IC50 ([3]; […] protein, DiFMUP at KM, read-out: Calculated IC50, PRL-3 phosphatase activity): 10 ± 0.4 µM
C[C@@H]1C/C=C/C=C/C=C/C=C/[C@H](O[C@@H]2O[C@H](C)[C@@H](O)[C@H](N)[C@@H]2O)C[C@@H]2O[C@](O)(C[C@@H](O)C[C@H]3O[C@@H]3/C=C/C(=O)O1)C[C@H](O)[C@H]2C(=O)O [Natamycin]	96	82	78	–
Cc1nc2n(c(=O)c1CCN1CCC(c3noc4cc(F)ccc34)CC1)CCCC2 [Risperidone]	104	94	88	–
CCc1c2c(nc3ccc(OC(=O)N4CCC(N5CCCCC5)CC4)cc13)-c1cc3c(c(=O)n1C2)COC(=O)[C@]3(O)CC.Cl.O.O.O [Irinotecan HCl Trihydrate]	4597	4207	4074	–
c1ccc2[nH]c(-c3cscn3)nc2c1 [Thiabendazole]	–	–	–	% Phosphatase Activity (compared to DMSO) PRL-1 [1, 5]: 99%; % Phosphatase Activity (compared to DMSO) PRL-2 [2, 5]: 99%; % Phosphatase Activity (compared to DMSO) PRL-3 [3, 5]: 119%
